Measured values reported in ChEMBL document CHEMBL1667853, “Design and synthesis of potent Gram-negative specific LpxC inhibitors” (Bioorg Med Chem Lett, 2011).
Converted amounts (≈) assume the structure as drawn.

How the values were obtained:
[1] = test system: Escherichia coli; test: Antimicrobial activity against Escherichia coli HS294 by broth dilution assay; format: functional
[2] = test system: Escherichia coli; test: Antimicrobial activity against Escherichia coli ATCC 25922 by broth dilution assay; format: functional
[3] = target: T1, UDP-3-O-acyl-N-acetylglucosamine deacetylase (Escherichia coli K-12, UniProt P0A725); test: Inhibition of Escherichia coli LpxC
T1 sequence (P0A725 whole entry): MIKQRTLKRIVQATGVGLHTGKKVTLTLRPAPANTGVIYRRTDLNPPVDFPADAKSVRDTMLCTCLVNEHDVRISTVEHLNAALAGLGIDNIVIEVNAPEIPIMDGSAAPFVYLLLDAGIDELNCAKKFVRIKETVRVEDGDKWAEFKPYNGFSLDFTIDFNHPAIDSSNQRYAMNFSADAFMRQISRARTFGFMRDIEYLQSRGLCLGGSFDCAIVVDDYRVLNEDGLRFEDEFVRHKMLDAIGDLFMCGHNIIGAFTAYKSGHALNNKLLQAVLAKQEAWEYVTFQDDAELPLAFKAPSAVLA

[4] = test system: Klebsiella pneumoniae; test: Antimicrobial activity against wild type Klebsiella pneumoniae by broth dilution assay; format: functional
[5] = test system: Pseudomonas aeruginosa; test: Antimicrobial activity against wild type Pseudomonas aeruginosa by broth dilution assay; format: functional
[6] = test system: Pseudomonas aeruginosa; test: Antimicrobial activity against multidrug-resistant Pseudomonas aeruginosa by broth dilution assay; format: functional
[7] = test system: Escherichia coli; test: Antimicrobial activity against multidrug-resistant Escherichia coli by broth dilution assay; format: functional
[8] = test system: Stenotrophomonas maltophilia; test: Antimicrobial activity against wild type Stenotrophomonas maltophilia by broth dilution assay; format: functional
[9] = test system: Escherichia coli; test: Antimicrobial activity against wild type Escherichia coli by broth dilution assay; format: functional

Row | SMILES | MIC [1] [µg/mL] | MIC [2] [µg/mL] | IC50 [3] [nM] | also measured
1 | C[C@@H](O)[C@@H](NC(=O)N1CCN(c2ccc(C#Cc3ccc(CC#N)cc3)cc2)CC1)C(=O)NO | 0.8 (≈ 1.73 µM) | 6.25 (≈ 13.5 µM) | 11 | –
2 | O=C(O)c1cn(C2CC2)c2cc(N3CCNCC3)c(F)cc2c1=O [CIPROFLOXACIN] | – | – | – | MIC [4]: 1 µg/mL (≈ 3.02 µM); MIC [5]: 0.012 µg/mL (≈ 0.0362 µM); MIC [6]: > 8 µg/mL; MIC [7]: > 32 µg/mL; MIC [8]: 0.016 µg/mL (≈ 0.0483 µM)
3 | C[C@@H](O)[C@@H](NC(=O)N1CCN(c2ccc(-c3ccc(N4CCOCC4)cc3)cc2)CC1)C(=O)NO | 3.13 (≈ 6.47 µM) | 6.25 (≈ 12.9 µM) | 16.3 | –
4 | C[C@@H](O)[C@@H](NC(=O)N1CCN(c2ccc(C#Cc3ccc(F)cc3)cc2)CC1)C(=O)NO | 0.8 (≈ 1.82 µM) | 3.13 (≈ 7.11 µM) | 7 | –
5 | CC(C)(O)[C@@H](NC(=O)N1CCN(c2ccc(-c3ccccc3)cc2)CC1)C(=O)NO | 0.8 (≈ 1.94 µM) | 3.13 (≈ 7.59 µM) | 7 | –
6 | C[C@@H](O)[C@@H](NC(=O)N1CCN(c2ccc(C#Cc3ccc(CN4CCOCC4)cc3)cc2)CC1)C(=O)NO | 1.56 (≈ 2.99 µM) | 6.25 (≈ 12 µM) | 14 | –
7 | C[C@@H](O)[C@@H](NC(=O)N1CCN(c2ccc(C#Cc3ccncc3)cc2)CC1)C(=O)NO | 0.8 (≈ 1.89 µM) | 3.13 (≈ 7.39 µM) | 4 | –
8 | O=C(N[C@H](CO)[C@H](O)c1ccc([N+](=O)[O-])cc1)C(Cl)Cl [CHLORAMPHENICOL] | – | – | – | MIC [5]: 2 µg/mL (≈ 6.19 µM); MIC [6]: > 256 µg/mL; MIC [9]: 2 µg/mL (≈ 6.19 µM); MIC [7]: > 32 µg/mL
9 | C[C@@H](O)[C@@H](NC(=O)N1CCC(c2cccc(C#Cc3ccccc3)c2)C1)C(=O)NO (stereo not given in full) | 1.56 (≈ 3.83 µM) | 100 (≈ 245 µM) | 146 | –
10 | C[C@@H](O)[C@@H](NC(=O)N1CCCC(c2ccc(C#Cc3ccccc3)cc2)C1)C(=O)NO (stereo not given in full) | 25 (≈ 59.3 µM) | > 100 | 387 | –
11 | CC[C@H]1OC(=O)[C@H](C)[C@@H](O[C@H]2C[C@@](C)(OC)[C@@H](O)[C@H](C)O2)[C@H](C)[C@@H](O[C@@H]2O[C@H](C)C[C@H](N(C)C)[C@H]2O)[C@](C)(O)C[C@@H](C)CN(C)[C@H](C)[C@@H](O)[C@]1(C)O [AZITHROMYCIN] | – | – | – | MIC [5]: 4 µg/mL (≈ 5.34 µM); MIC [6]: 32 µg/mL (≈ 42.7 µM); MIC [7]: 32 µg/mL (≈ 42.7 µM)
12 | C[C@@H](O)[C@@H](NC(=O)N1CCN(c2ccc(C#Cc3ccc(C(F)(F)F)cc3)cc2)CC1)C(=O)NO | 1.56 (≈ 3.18 µM) | 12.5 (≈ 25.5 µM) | 10.4 | –
13 | CCCc1cc(C2=N[C@@H](C(=O)NO)CO2)cc(OC)c1OC | – | – | – | Ki [3]: 50 nM
14 | C[C@@H](O)[C@@H](NC(=O)N1CCC(C#Cc2ccccc2)CC1)C(=O)NO | 3.13 (≈ 9.06 µM) | 25 (≈ 72.4 µM) | 207 | –
15 | C[C@@H](O)[C@@H](NC(=O)N1CCN(c2ccc(C#Cc3ccc(N4CCNCC4)cc3)cc2)CC1)C(=O)NO | 0.4 (≈ 0.79 µM) | 6.25 (≈ 12.3 µM) | 23.3 | –
16 | C[C@@H](O)[C@@H](NC(=O)N1CCN(c2ccc(C#Cc3ccccc3)cc2)CC1)C(=O)NO | 0.2 (≈ 0.473 µM) | 1.56 (≈ 3.69 µM) | 2.4 | –
17 | C[C@@H](O)[C@H](C(=O)NO)N1Cc2cc(C#Cc3ccccc3)ccc2C1=O | – | – | 130 | –
18 | C[C@@H](O)[C@@H](NC(=O)N1CCN(c2ccc(C#Cc3ccc(N4CCOCC4)cc3)cc2)CC1)C(=O)NO | 0.1 (≈ 0.197 µM) | 25 (≈ 49.3 µM) | 3 | –
19 | C[C@@H](O)[C@@H](NC(=O)N1CCC(c2ccc(C#Cc3ccccc3)cc2)C1)C(=O)NO (stereo not given in full) | 12.5 (≈ 30.7 µM) | 100 (≈ 245 µM) | 36 | –
20 | C[C@@H](O)[C@@H](NC(=O)N1CCN(c2ccc(C#Cc3ccc(CO)cc3)cc2)CC1)C(=O)NO | 0.4 (≈ 0.884 µM) | 12.5 (≈ 27.6 µM) | 12 | –
21 | CN(C)[C@@H]1C(O)=C(C(N)=O)C(=O)[C@@]2(O)C(O)=C3C(=O)c4c(O)cccc4[C@@](C)(O)[C@H]3C[C@@H]12 [TETRACYCLINE] | – | – | – | MIC [5]: 1 µg/mL (≈ 2.25 µM); MIC [6]: 16 µg/mL (≈ 36 µM); MIC [9]: 1 µg/mL (≈ 2.25 µM); MIC [7]: > 2 µg/mL
22 | C[C@@H](O)[C@H](C(=O)NO)n1[nH]c2cc(C#Cc3ccccc3)ccc2c1=O | – | – | 200 | –
23 | C[C@@H](O)[C@H](C(=O)NO)N1Cc2cc(C#Cc3ccc(-c4ccccc4)cc3)ccc2C1=O | – | – | 13 | –

Row | SMILES | MIC [1] [µg/mL] | MIC [2] [µg/mL] | IC50 [3] [nM] | also measured
24 | C[C@@H](O)[C@@H](NC(=O)NCc1ccc(C#Cc2ccccc2)cc1)C(=O)NO | 12.5 (≈ 34 µM) | > 100 | 201 | –
25 | C[C@@H](O)[C@@H](NC(=O)NCCc1ccc(C#Cc2ccccc2)cc1)C(=O)NO | 50 (≈ 131 µM) | > 100 | 1270 | –
26 | C[C@@H](O)[C@@H](NC(=O)N1CCN(c2ccc(C#Cc3ccc(O)cc3)cc2)CC1)C(=O)NO | 0.1 (≈ 0.228 µM) | 1.56 (≈ 3.56 µM) | 4 | –
27 | C[C@@H](O)[C@H](C(=O)NO)N1Cc2cc(-c3ccccc3)ccc2C1=O | – | – | 41000 | –
28 | NC[C@@H](NC(=O)N1CCC(c2ccc(C#Cc3ccccc3)cc2)CC1)C(=O)NO | 6.25 (≈ 15.4 µM) | 12.5 (≈ 30.8 µM) | 163 | –
29 | C[C@@H](O)[C@H](C(=O)NO)N1Cc2cc(-c3ccc(C#Cc4ccccc4)cc3)ccc2C1=O | – | – | 29 | –
30 | C[C@@H](O)[C@@H](NC(=O)N1CCN(c2ccc(C#Cc3ccc(N)cc3)cc2)CC1)C(=O)NO | 1.56 (≈ 3.57 µM) | 3.13 (≈ 7.15 µM) | 26 | –
31 | C[C@@H](O)[C@@H](NC(=O)N1CCN(c2ccc(C#Cc3cccs3)cc2)CC1)C(=O)NO | 1.56 (≈ 3.64 µM) | 25 (≈ 58.3 µM) | 21 | –
32 | C[C@@H](O)[C@@H](NC(=O)N1CCN(c2ccc(-c3ccccc3)cc2)CC1)C(=O)NO | 0.8 (≈ 2.01 µM) | 3.13 (≈ 7.86 µM) | 5.6 | –
33 | C[C@@H](O)[C@@H](NC(=O)N1CCN(c2ccc(-c3cncs3)cc2)CC1)C(=O)NO | 3.13 (≈ 7.72 µM) | 100 (≈ 247 µM) | 12 | –
34 | CCCCCCCCCCCCCC(=O)O[C@@H]1[C@@H](CC(=O)NO)CO[C@H](CO)[C@H]1O | – | – | – | Ki [3]: 650 nM
35 | C[C@@H](O)[C@@H](NC(=O)N1CCN(c2ccc(C#Cc3cnccn3)cc2)CC1)C(=O)NO | 6.25 (≈ 14.7 µM) | > 100 | 136 | –
36 | C[C@@H](O)[C@H](C(=O)NO)N1Cc2ccc(C#Cc3ccccc3)cc2C1=O | – | – | 34000 | –
37 | C[C@@H](O)[C@@H](NC(=O)N1CCN(c2ccc(C#Cc3ccc(Cl)cc3)cc2)CC1)C(=O)NO | 1.56 (≈ 3.41 µM) | 6.25 (≈ 13.7 µM) | 5 | –
38 | C[C@@H](O)[C@@H](NC(=O)N1CCC(c2ccccc2)CC1)C(=O)NO | 12.5 (≈ 38.9 µM) | – | 3940 | –
39 | C[C@@H](O)[C@@H](NC(=O)N1CCN(c2ccc(C#Cc3cccnc3)cc2)CC1)C(=O)NO | 12.5 (≈ 29.5 µM) | 100 (≈ 236 µM) | 63 | –
40 | CC(C)(O)[C@@H](NC(=O)N1CCC(c2ccc(-c3ccccc3)cc2)CC1)C(=O)NO | 0.2 (≈ 0.486 µM) | 0.8 (≈ 1.94 µM) | 2.5 | –
41 | C[C@@H](O)[C@@H](NC(=O)N1CCN(c2ccc(C#Cc3ccccn3)cc2)CC1)C(=O)NO | 6.25 (≈ 14.8 µM) | > 100 | 10 | –
42 | C[C@@H](O)[C@H](C(=O)NO)N1Cc2cc(-c3ccc(-c4ccccc4)cc3)ccc2C1=O | – | – | 50 | –
43 | C[C@@H](O)[C@@H](NC(=O)N1CCC(c2ccc(C#Cc3ccccc3)cc2)CC1)C(=O)NO | 0.8 (≈ 1.9 µM) | 12.5 (≈ 29.7 µM) | – | –
44 | C[C@@H](O)[C@H](C(=O)NO)N1Cc2cc(C#Cc3cccc(-c4ccccc4)c3)ccc2C1=O | – | – | 971 | –
45 | C[C@@H](O)[C@H](C(=O)NO)N1Cc2cc(Br)ccc2C1=O | – | – | > 61000 | –
